Measurements reported in paper PMC10779433, “Bidirectional Allosteric Coupling between PIP2 Binding and the Pore of the Oncochannel TRPV6” (International Journal of Molecular Sciences, 2024).
Residues, ends and D or L forms follow the SMILES beside them. *: point of attachment. Palmitoyl = CCCCCCCCCCCCCCCC(=O)*

How the values were obtained:
TRPV6 I575A = assay: NFAT screen, TRPV6 I575A; assay type: cell-based, human; details: HEK293 cells; 5 μM cis-22a, 2 h, vs DMSO
Description: (§1) N-terminally TagRFP-labeled human TRPV6 (725 aa) was kindly provided by R. Bhardwaj and M. Hediger (University of Bern, Bern, Switzerland). This variant is translated from the first ATG codon and thus deviates from the non-ATG-initiated protein which is expressed in vivo (accession number NM_018646.6) by lacking 40 amino acids of the very N-terminus. For N-terminal labeling with EYFP, TRPV6 was cloned into pEYFP-C1 (Clontech) via EcoRI and SacII restriction sites. […]
(§2) After incubation, cover slips were carefully rinsed with phenol red-free DMEM supplemented with the compound and dosage corresponding to the previous incubation, which was then also present during imaging. […] Subcellular NFAT localization of TRPV6 expressing cells was again monitored on an Axiovert 135 inverted microscope (Zeiss, Oberkochen, Germany), as described in more detail before. […] Images were analyzed using Matlab2018a, differentiating between three cell populations based on the ratio of CFP emission intensity originating from the nucleus and the cytosol, similar to Schober et al. (2019).

TRPV6 D580K = assay: NFAT screen, TRPV6 D580K; assay type: cell-based, human; details: HEK293 cells; 5 μM cis-22a, 2 h, vs DMSO
Description: as §1, §2

TRPV6 H582A = assay: NFAT screen, TRPV6 H582A; assay type: cell-based, human; details: HEK293 cells; 5 μM cis-22a, 2 h, vs DMSO; analysable cells hardly present
Description: as §1, §2

TRPV6 W583A = assay: NFAT screen, TRPV6 W583A; assay type: cell-based, human; details: HEK293 cells; 5 μM cis-22a, 2 h, vs DMSO; analysable cells hardly present
Description: as §1, §2

TRPV6 R589A = assay: NFAT screen, TRPV6 R589A; assay type: cell-based, human; details: HEK293 cells; 5 μM cis-22a, 2 h; same for solvent control
Description: as §1, §2

TRPV6 R470A W583F [1] = assay: NFAT screen, TRPV6 R470A W583F; assay type: cell-based, human; details: HEK293 cells; 5 μM cis-22a, 2 h
Description: as §1, §2

TRPV6 W583F = tested on: TRPV6 W583F; parameters: method as in PMID 33246965; details: ref [47], cited from earlier work
TRPV6 G488R = assay: Fura-2 Ca2+ imaging, TRPV6 G488R; assay type: cell-based, human; details: HEK293 cells; 20 μM pal-PIP2 peptide; 2 mM Ca2+; Figure 2A
TRPV6 K484A = assay: Whole-cell patch clamp, TRPV6 K484A; assay type: cell-based, human; details: HEK293 cells; 10 μM pal-PIP2 peptide; p < 0.05; Figure 4D
Description: (§3) N-terminally TagRFP-labeled human TRPV6 (725 aa) was kindly provided by R. Bhardwaj and M. Hediger (University of Bern, Bern, Switzerland). This variant is translated from the first ATG codon and thus deviates from the non-ATG-initiated protein which is expressed in vivo (accession number NM_018646.6) by lacking 40 amino acids of the very N-terminus. For N-terminal labeling with EYFP, TRPV6 was cloned into pEYFP-C1 (Clontech) via EcoRI and SacII restriction sites. Mutations (F468A, R470A, F472A, K484A/Q, G488R, R492A/Q, I575A, G579A, D580A/K, H582A, W583A/F, H587A, R589A, W593A, R632A/Q, R470A, W583F) were introduced using the QuickChange XL site-directed mutagenesis kit (Stratagene, San Diego, CA, USA) and Pfu DNA Polymerase (Promega, Madison, WI, USA). pTagRFP-hTRPV6 I575A was kindly provided by the lab of M. Hediger (University of Bern, Bern, Switzerland). Forward and reverse primers for site-directed mutagenesis were synthesized by Eurofins genomics GmbH (Wien, Vienna, Austria). Intactness of the constructs in terms of sequence was confirmed by sequencing (Microsynth Austria GmbH, Wien, Vienna, Austria; Eurofins genomics GmbH, Wien, Vienna, Austria). […]
(§4) Electrophysiological experiments were performed at 20 °C to 24 °C in whole-cell recording configurations of the patch clamp technique. […] The liquid junction potential was determined as 12 mV; the voltages were not adjusted. […]

TRPV6 R470A W583F [2] = assay: Whole-cell patch clamp, TRPV6 R470A W583F; assay type: cell-based, human; details: HEK293 cells; 10 μM pal-PIP2 peptide; Figure 6A; compared with W583F
Description: as §3, §4

Row | SMILES | change of nuclear NFAT localization (TRPV6 I575A) | change of nuclear NFAT localization (TRPV6 D580K) | change of nuclear NFAT localization (TRPV6 H582A) | change of nuclear NFAT localization (TRPV6 W583A) | nuclear targeting of NFAT (TRPV6 R589A) | NFAT localization patterns (TRPV6 R470A W583F [1]) | response to cis-22a vs TRPV6 WT (TRPV6 W583F; HEK293 cells, 0.1 μM and 10 μM cis-22a, Figure 5B) | IC50 (TRPV6 W583F; TRPV6 W583F) [µM] | reduction of intracellular Ca2+ level (TRPV6 G488R) | sensitivity to peptide-based PIP2 sequestration vs WT (TRPV6 K484A) | resistance to inhibition by pal-PIP2 peptide (TRPV6 R470A W583F [2])
1 | Cc1cccc(C2CCC(N3CCN(c4cccnc4)CC3)CC2)c1.O=C(O)C(F)(F)F (stereo not drawn) [cis-22a] | not significantly changed | not significantly changed | nuclear NFAT localization was higher for cis-22a-treated cells compared to the DMSO control | nuclear NFAT localization was higher for cis-22a-treated cells compared to the DMSO control | almost absent | unable to change localization patterns | significantly reduced response | ~6.19 | – | – | –
2 | CCCCCCCCCCCCCCCC(=O)N[C@@H](Cc1c[nH]cn1)C(=O)N[C@@H](CCCNC(=N)N)C(=O)N[C@@H](CCC(N)=O)C(=O)N[C@@H](CCCCN)C(=O)N[C@@H](Cc1c[nH]cn1)C(=O)N[C@@H](Cc1ccccc1)C(=O)N[C@@H](CCC(=O)O)C(=O)N[C@@H](CCCCN)C(=O)N[C@@H](CCCNC(=N)N)C(=O)N[C@@H](CCCNC(=N)N)C(N)=O [pal-PIP2 peptide] (Palmitoyl-HRQKHFEKRR-NH2) | – | – | – | – | – | – | – | – | ~ 2% | significantly reduced sensitivity | regained significant resistance to inhibition
